Tests used:
[1] = biological target: T1, human MCH receptor 1 (MCHR1) (Homo sapiens, UniProt Q99705); experiment: human MCH receptor 1 (MCHR1) competitive binding assay with [125I]-MCH(4-19); details: test compound 0.1 μM, human MCHR1-expressing CHO cell membrane fraction, read-out: Binding inhibition rate % (0.1 μM)
T1 construct: expressed in transfected cells; host or cells: CHO cell clone 57 (membrane fraction)
How it was run: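 Membranes from CHO cells expressing human MCHR1 incubated with [125I]-MCH(4-19) and test compound in 20 mM Tris-HCl pH 7.5/5 mM EDTA with protease inhibitors, 1 hr at room temperature. Bound radioactivity collected on PEI-treated GF/C filters; % inhibition at 0.1 μM compound, nonspecific binding set with cold MCH(1-19).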

HERG = biological target: T2, HERG (Homo sapiens, UniProt Q12809); experiment: HERG inhibitory activity, whole-cell patch clamp; format: cell-based; details: 10 μM test compound; HERG.T.HEK cells; peak tail current
T2 construct: host or cells: HERG.T.HEK (HEK cells, G418 selection)
From the text: Evaluation of HERG Inhibitory Activity
MEM medium, MEM nonessential amino acid solution, sodium pyruvate solution and G418 sulfate solution (Geneticin) were purchased from Invitrogen Corporation (Carlsbad, Calif.). Bovine serum albumin (BSA, Fatty Acid Free) was a product of Wako Pure Chemical Industries, Ltd. (Osaka, Japan). Fetal calf serum (FCS) was a product of Trau Scientific Ltd. (Melbourne, Australia).
As HERG-expressing cell HERG.T.HEK, the cell obtained from Wisconsin ALUMNI Research Foundation was used. HERG.T.HEK was maintained and passaged at 37° C. in the presence of 5% CO2 using an MEM medium containing 10% FCS, 1 mM MEM nonessential amino acid, 1 mM sodium pyruvate and 500 μg/ml Geneticin.
80-90% confluent cells were collected by a trypsin treatment and plated on an IVF dish (Falcon, Franklin Lakes, N.J.). […] A preliminary stimulation was applied and the HERG electric current value (peak tail current) was measured when the electric current waveform was stabilized.
For measurement of the HERG electric current with addition of the test compound, the cells were first perfused with the extracellular fluid and, when the waveform was stabilized, the cells were perfused with an extracellular fluid containing 10 μM of a test compound. When the electric current waveform was stabilized under respective perfuse conditions, the HERG electric current was measured.
The HERG electric current inhibitory rate (%) of the test compound was calculated with the HERG electric current value without addition of the test compound as 100%.

T1 sequence (Q99705 whole entry): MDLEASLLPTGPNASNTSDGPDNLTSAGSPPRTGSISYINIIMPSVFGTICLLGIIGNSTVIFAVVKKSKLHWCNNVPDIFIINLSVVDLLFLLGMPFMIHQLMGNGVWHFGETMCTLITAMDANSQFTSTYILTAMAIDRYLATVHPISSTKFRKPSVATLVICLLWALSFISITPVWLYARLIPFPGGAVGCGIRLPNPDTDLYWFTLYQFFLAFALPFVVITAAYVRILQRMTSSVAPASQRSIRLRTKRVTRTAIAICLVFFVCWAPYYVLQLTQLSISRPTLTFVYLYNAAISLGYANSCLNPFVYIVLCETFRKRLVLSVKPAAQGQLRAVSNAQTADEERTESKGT
T2 sequence (Q12809 whole entry): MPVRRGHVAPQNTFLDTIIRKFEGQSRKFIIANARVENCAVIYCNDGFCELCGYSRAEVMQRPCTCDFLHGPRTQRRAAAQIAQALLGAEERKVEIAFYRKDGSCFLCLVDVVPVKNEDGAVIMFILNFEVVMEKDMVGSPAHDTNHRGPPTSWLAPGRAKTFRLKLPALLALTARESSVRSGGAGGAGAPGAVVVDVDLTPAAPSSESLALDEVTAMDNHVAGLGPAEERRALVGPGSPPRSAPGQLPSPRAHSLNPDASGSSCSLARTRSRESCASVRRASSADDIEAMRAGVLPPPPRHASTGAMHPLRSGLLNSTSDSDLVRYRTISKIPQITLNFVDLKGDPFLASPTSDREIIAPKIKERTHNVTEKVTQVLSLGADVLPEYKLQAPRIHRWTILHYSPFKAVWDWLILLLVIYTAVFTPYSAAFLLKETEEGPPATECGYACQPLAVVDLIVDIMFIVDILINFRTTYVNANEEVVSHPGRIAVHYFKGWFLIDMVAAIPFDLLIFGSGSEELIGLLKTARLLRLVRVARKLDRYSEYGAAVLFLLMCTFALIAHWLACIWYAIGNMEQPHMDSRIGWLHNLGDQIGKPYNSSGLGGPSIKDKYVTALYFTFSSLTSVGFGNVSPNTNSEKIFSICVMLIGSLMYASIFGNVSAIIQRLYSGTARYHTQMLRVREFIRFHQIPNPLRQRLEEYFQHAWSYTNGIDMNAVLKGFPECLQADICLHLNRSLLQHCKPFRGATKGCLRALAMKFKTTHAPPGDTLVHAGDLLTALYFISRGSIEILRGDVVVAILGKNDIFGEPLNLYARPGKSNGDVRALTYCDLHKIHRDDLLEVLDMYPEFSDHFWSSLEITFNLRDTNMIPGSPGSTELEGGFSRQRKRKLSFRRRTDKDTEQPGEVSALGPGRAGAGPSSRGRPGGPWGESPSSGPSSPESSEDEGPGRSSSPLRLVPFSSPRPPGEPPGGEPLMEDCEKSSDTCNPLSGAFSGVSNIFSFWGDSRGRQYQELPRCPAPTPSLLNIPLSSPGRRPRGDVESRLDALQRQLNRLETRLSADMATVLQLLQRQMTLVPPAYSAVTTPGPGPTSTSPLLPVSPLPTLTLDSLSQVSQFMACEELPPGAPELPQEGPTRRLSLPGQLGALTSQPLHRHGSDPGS

inhibition at 0.1 µM [1] [%]	SMILES	HERG inhibitory action (%) (HERG)
80	Cn1c(C2CC2)nc2ccc(-n3ccc(OCc4ccc(F)cc4)cc3=O)cc21 [Example 2, 1-(2-Cyclopropyl-1-methyl-1H-benzimidazol-6-yl)-4-((4-fluorobenzyl)oxy)pyridin-2(1H)-one]	27.3
57	Cc1nc2ccc(-n3ccc(OCc4ccc(F)cc4)cc3=O)cc2n1C [Example 254, 1-(1,2-Dimethyl-1H-benzimidazol-6-yl)-4-((4-fluorobenzyl)oxy)pyridin-2(1H)-one]	26.4
74	CCc1nc2ccc(-n3ccc(OCc4ccc(F)cc4)cc3=O)cc2n1C [Example 63, 1-(2-Ethyl-1-methyl-1H-benzimidazol-6-yl)-4-((4-fluorobenzyl)oxy)pyridin-2(1H)-one]	23.0
